# Test results: patent publication US20260069588A1, “VEPDEGESTRANT FOR USE IN TREATING CANCER” (Arvinas Operation, Inc., priority 2022, published 2026)
# Assay: Phase 1 single agent studies in Japanese and Chinese participants (C4891016, C4891018): adverse events
# [1] = TEAE treatment related, 200 mg, N = 15
# Excerpt: TEAE's from participants in both studies have been combined and are described below.
compound,measurement,setting,value
"O=C1CC[C@H](N2Cc3cc(N4CCN(CC5CCN(c6ccc([C@@H]7c8ccc(O)cc8CC[C@@H]7c7ccccc7)cc6)CC5)CC4)ccc3C2=O)C(=O)N1 [Compound A, (S)-3-(5-(4-((1-(4-((1R,2S)-6-hydroxy-2-phenyl-1,2,3,4-tetrahydronaphthalen-1-yl)phenyl)piperidin-4-yl)methyl)piperazin-1-yl)-1-oxoisoindolin-2-yl)piperidine-2,6-dione]","Gastrointestinal disorders, Grade 3",[1],0 n (%)
same,"Gastrointestinal disorders, Grade 4",[1],0 n (%)
same,"Gastrointestinal disorders, Grade 5",[1],0 n (%)
same,"Gastrointestinal disorders, Missing or Unknown",[1],0 n (%)
same,"Gastrointestinal disorders, Total",[1],4 (26.7) n (%)
same,"General disorders and administration site conditions, Grade 1",[1],0 n (%)
same,"General disorders and administration site conditions, Grade 2",[1],1 (6.7) n (%)
same,"General disorders and administration site conditions, Grade 3",[1],0 n (%)
same,"General disorders and administration site conditions, Grade 4",[1],0) n (%)
same,"General disorders and administration site conditions, Grade 5",[1],0 n (%)
same,"General disorders and administration site conditions, Missing or Unknown",[1],0 n (%)
same,"General disorders and administration site conditions, Total",[1],1 (6.7) n (%)
same,"Headache, Grade 1",[1],1 (6.7) n (%)
same,"Headache, Grade 2",[1],0 n (%)
same,"Headache, Grade 3",[1],0 n (%)
same,"Headache, Grade 4",[1],0 n (%)
same,"Headache, Grade 5",[1],0 n (%)
same,"Headache, Missing or Unknown",[1],0 n (%)
same,"Headache, Total",[1],1 (6.7) n (%)
same,"Hyperuricemia, Grade 1",[1],2 (13.3) n (%)
same,"Hyperuricemia, Grade 2",[1],0 n (%)
same,"Hyperuricemia, Grade 3",[1],0 n (%)
same,"Hyperuricemia, Grade 4",[1],0 n (%)
same,"Hyperuricemia, Grade 5",[1],0 n (%)
same,"Hyperuricemia, Missing or Unknown",[1],0 n (%)
same,"Hyperuricemia, Total",[1],2 (13.3) n (%)
same,"Hypokalemia, Grade 1",[1],1 (6.7) n (%)
same,"Hypokalemia, Grade 2",[1],0 n (%)
same,"Hypokalemia, Grade 3",[1],0 n (%)
same,"Hypokalemia, Grade 4",[1],0 n (%)
same,"Hypokalemia, Grade 5",[1],0 n (%)
same,"Hypokalemia, Missing or Unknown",[1],0 n (%)
same,"Hypokalemia, Total",[1],1 (6.7) n (%)
same,"Hypophosphatasemia, Grade 1",[1],1 (6.7) n (%)
same,"Hypophosphatasemia, Grade 2",[1],0 n (%)
same,"Hypophosphatasemia, Grade 3",[1],0 n (%)
same,"Hypophosphatasemia, Grade 4",[1],0 n (%)
same,"Hypophosphatasemia, Grade 5",[1],0 n (%)
same,"Hypophosphatasemia, Missing or Unknown",[1],0 n (%)
same,"Hypophosphatasemia, Total",[1],1 (6.7) n (%)
same,"Investigations, Grade 1",[1],4 (26.7) n (%)
same,"Investigations, Grade 2",[1],1 (6.7) n (%)
same,"Investigations, Grade 3",[1],2 (13.3) n (%)
same,"Investigations, Grade 4",[1],0 n (%)
same,"Investigations, Grade 5",[1],0 n (%)
same,"Investigations, Missing or Unknown",[1],0 n (%)
same,"Investigations, Total",[1],7 (46.7) n (%)
same,"Metabolism and nutrition disorders, Grade 1",[1],3 (20.0) n (%)
same,"Metabolism and nutrition disorders, Grade 2",[1],0 n (%)
same,"Metabolism and nutrition disorders, Grade 3",[1],0 n (%)
same,"Metabolism and nutrition disorders, Grade 4",[1],0 n (%)
same,"Metabolism and nutrition disorders, Grade 5",[1],0) n (%)
same,"Metabolism and nutrition disorders, Missing or Unknown",[1],0 n (%)
same,"Metabolism and nutrition disorders, Total",[1],3 (20.0) n (%)
same,"Musculoskeletal and connective tissue disorders, Grade 1",[1],1 (6.7) n (%)
same,"Musculoskeletal and connective tissue disorders, Grade 2",[1],0) n (%)
same,"Musculoskeletal and connective tissue disorders, Grade 3",[1],0 n (%)
same,"Musculoskeletal and connective tissue disorders, Grade 4",[1],0 n (%)
same,"Musculoskeletal and connective tissue disorders, Grade 5",[1],0 n (%)
same,"Musculoskeletal and connective tissue disorders, Missing or Unknown",[1],0 n (%)
same,"Musculoskeletal and connective tissue disorders, Total",[1],1 (6.7) n (%)
same,"Nausea, Grade 1",[1],1 (6.7) n (%)
same,"Nausea, Grade 2",[1],0 n (%)
same,"Nausea, Grade 3",[1],0 n (%)
same,"Nausea, Grade 4",[1],0 n (%)
same,"Nausea, Grade 5",[1],0 n (%)
same,"Nausea, Missing or Unknown",[1],0 n (%)
same,"Nausea, Total",[1],1 (6.7) n (%)
same,"Nervous system disorders, Grade 1",[1],2 (13.3) n (%)
same,"Nervous system disorders, Grade 2",[1],0 n (%)
same,"Nervous system disorders, Grade 3",[1],0 n (%)
same,"Nervous system disorders, Grade 4",[1],0 n (%)
same,"Nervous system disorders, Grade 5",[1],0 n (%)
same,"Nervous system disorders, Missing or Unknown",[1],0 n (%)
same,"Nervous system disorders, Total",[1],2 (13.3) n (%)
same,"Neutrophil count decreased, Grade 1",[1],1 (6.7) n (%)
same,"Neutrophil count decreased, Grade 2",[1],0 n (%)
same,"Neutrophil count decreased, Grade 3",[1],1 (6.7) n (%)
same,"Neutrophil count decreased, Grade 4",[1],0 n (%)
same,"Neutrophil count decreased, Grade 5",[1],0 n (%)
same,"Neutrophil count decreased, Missing or Unknown",[1],0 n (%)
same,"Neutrophil count decreased, Total",[1],2 (13.3) n (%)
same,"Pain, Grade 1",[1],0 n (%)
same,"Pain, Grade 2",[1],1 (6.7) n (%)
same,"Pain, Grade 3",[1],0 n (%)
same,"Pain, Grade 4",[1],0 n (%)
same,"Pain, Grade 5",[1],0 n (%)
same,"Pain, Missing or Unknown",[1],0 n (%)
same,"Pain, Total",[1],1 (6.7) n (%)
same,"Participants with events, Grade 1",[1],7 (46.7) n (%)
same,"Participants with events, Grade 2",[1],2 (13.3) n (%)
same,"Participants with events, Grade 3",[1],2 (13.3) n (%)
same,"Participants with events, Grade 4",[1],0 n (%)
same,"Participants with events, Grade 5",[1],0 n (%)
same,"Participants with events, Missing or Unknown",[1],0 n (%)
same,"Participants with events, Total",[1],11 (73.3) n (%)
same,"Platelet count decreased, Grade 1",[1],1 (6.7) n (%)
same,"Platelet count decreased, Grade 2",[1],0 n (%)
same,"Platelet count decreased, Grade 3",[1],0 n (%)
same,"Platelet count decreased, Grade 4",[1],0 n (%)
same,"Platelet count decreased, Grade 5",[1],0) n (%)
same,"Platelet count decreased, Missing or Unknown",[1],0 n (%)
same,"Platelet count decreased, Total",[1],1 (6.7) n (%)
same,"Pruritus, Grade 1",[1],1 (6.7) n (%)
same,"Pruritus, Grade 2",[1],0 n (%)
same,"Pruritus, Grade 3",[1],0 n (%)
same,"Pruritus, Grade 4",[1],0) n (%)
same,"Pruritus, Grade 5",[1],0 n (%)
same,"Pruritus, Missing or Unknown",[1],0 n (%)
same,"Pruritus, Total",[1],1 (6.7) n (%)
same,"Sinus bradycardia, Grade 1",[1],1 (6.7) n (%)
same,"Sinus bradycardia, Grade 2",[1],0 n (%)
same,"Sinus bradycardia, Grade 3",[1],0 n (%)
same,"Sinus bradycardia, Grade 4",[1],0 n (%)
same,"Sinus bradycardia, Grade 5",[1],0 n (%)
same,"Sinus bradycardia, Missing or Unknown",[1],0 n (%)
same,"Sinus bradycardia, Total",[1],1 (6.7) n (%)
same,"Skin and subcutaneous tissue disorders, Grade 1",[1],2 (13.3) n (%)
same,"Skin and subcutaneous tissue disorders, Grade 2",[1],0 n (%)
same,"Skin and subcutaneous tissue disorders, Grade 3",[1],0 n (%)
same,"Skin and subcutaneous tissue disorders, Grade 4",[1],0 n (%)
same,"Skin and subcutaneous tissue disorders, Grade 5",[1],0 n (%)
same,"Skin and subcutaneous tissue disorders, Missing or Unknown",[1],0 n (%)
same,"Skin and subcutaneous tissue disorders, Total",[1],2 (13.3) n (%)
same,"White blood cell count decreased, Grade 1",[1],0 n (%)
same,"White blood cell count decreased, Grade 2",[1],0 n (%)
same,"White blood cell count decreased, Grade 3",[1],1 (6.7) n (%)
same,"White blood cell count decreased, Grade 4",[1],0 n (%)
same,"White blood cell count decreased, Grade 5",[1],0 n (%)
same,"White blood cell count decreased, Missing or Unknown",[1],0 n (%)
same,"White blood cell count decreased, Total",[1],1 (6.7) n (%)
same,discontinuations due to TEAE,in vivo,No discontinuations reported due to TEAE
